Laboratory results published in PubChem BioAssay (NCI).
Several values for one entry are separate records, joined by “and”; a condition that tells them apart may be missing. Equal entries are not always repeated.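 Exposure lasted 48 hours, with cells grown in 96-well plates and compounds tested at five concentrations. At the GI50, growth is halved. TGI: concentration producing complete growth inhibition.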

How the values were obtained:
Experiment in all cases: growth of human tumour cells (NCI), 48 h
[1] = system: HT29 colon
[2] = system: SW-620 colon
[3] = system: LOX IMVI melanoma
[4] = system: HL-60(TB) leukemia
[5] = system: A549 NSCLC
[6] = system: SK-MEL-2 melanoma
[7] = system: COLO 205 colon
[8] = system: A498 renal
[9] = system: SF-268 CNS
[10] = system: 786-0 renal

Structure (SMILES) | GI50 [1] [µM] | TGI [1] | GI50 [2] [µM] | TGI [2] | GI50 [3] [µM] | TGI [3] | GI50 [4] [µM] | TGI [4] | GI50 [5] [µM] | TGI [5] | GI50 [6] [µM] | TGI [6] | GI50 [7] [µM] | TGI [7] [µM] | GI50 [8] [µM] | TGI [8] | GI50 [9] [µM] | TGI [9] | GI50 [10] [µM] | TGI [10] [µM]
CC(C)N(Cc1ccc(F)cc1)c1ccc(CO)c(Cl)c1 | 1.81 | 14.1 µM | 0.363 | 15.3 µM | 8.35 | 21.6 µM | 3.15 | 21.8 µM | 1.03 | 17.5 µM | 1.61 | 16.6 µM | 1.03 | 7.17 | 0.0225 | 0.134 µM | 13.1 | 26.4 µM | 7 | 22.1
C=C1C=CC2(Br)OC3CC(C)(Cl)C(Br)CC13C2(C)C (stereo unspecified) | – | 36.5 µM | – | 56 µM | – | 33.8 µM | – | 33.9 µM | – | > 100 µM | – | 31.9 µM | – | 30.9 | – | 46.5 µM | – | > 100 µM | – | > 100
COc1c(CC=C(C)C)c(O)c(C(CC(C)C)c2c(O)c(CC=C(C)C)c(O)c(C(C)=O)c2O)c(O)c1C(C)=O (stereo unspecified) | – | 8.63 µM | – | 5.8 µM | – | 3.59 µM | – | 3.28 µM | – | 12.1 µM | – | 1.94 µM | – | 4.7 | – | 1.24 µM | – | 8.12 µM | – | 11.9
O=C1/C(=C/c2ccccc2[N+](=O)[O-])COc2ccc(O)cc21 | 0.397 | 3.07 µM | 0.448 | 1.81 µM | 1.05 | 2.27 µM | 1.76 | 5.68 µM | 4.49 | 19.4 µM | 2.98 | 11 µM | 1.14 | 2.89 | 1.65 | 7.24 µM | 2.4 | 7.97 µM | 1.72 | 10
O=C1C(Sc2ccc3ccccc3c2)=C(Sc2ccc3ccccc3c2)C(=O)c2ccccc21 | – | 29 µM | – | 16.5 µM | – | 47.8 µM | – | 11.2 µM | – | 21.7 µM | – | 19.3 µM | – | 12.8 | – | 33.4 µM | – | 28.7 µM | – | 25.3
COc1cc(-c2ncn(/C=C\c3nnco3)n2)cc(C(F)(F)F)c1 | 0.191 | 50.8 µM | 0.0663 | 31.7 µM | 0.0906 | 2.02 µM | 0.0809 | 13.1 µM | 0.109 | > 68 µM | 0.0617 | 1.15 µM | 0.0675 | > 24.7 | 0.0421 | 0.619 µM | 0.0891 | 23.9 µM | 0.465 | > 51.9
N#Cc1cc2c(cc1Cl)Sc1nnc(Nc3cccc4ccccc34)n1S2(=O)=O | 3.96 | 12.7 µM | 3.61 | 12.3 µM | 3.17 | 10.3 µM | 2.75 | 20.2 µM | 37 | > 100 µM | 17.3 | > 100 µM | 2.34 | 4.52 | 17.5 | 31.7 µM | 2.85 | 10.1 µM | 16.9 | 45.4
C=CCN(CC=C)C(=O)[C@H](CC)[C@@H]1CC[C@@H](C)[C@@H]([C@H](C)[C@@H](O)[C@@H](C)C(=O)[C@H](CC)C2O[C@]3(C=C[C@@H](O)[C@]4(CC[C@@](C)([C@H]5CC[C@](O)(CC)[C@H](C)O5)O4)O3)[C@H](C)C[C@@H]2C)O1 (stereo partly specified) | 3.12 | 16.1 µM | 2.97 | 10.6 µM | 1.52 | 3.22 µM | 2.09 | 4.76 µM | 3.37 | > 100 µM | 2.62 | 7.47 µM | 2.56 | 6.23 | 2.07 | 5.32 µM | 3.27 | 34.8 µM | 2.19 | 5.48
CN(C)c1nc(N)c(C#N)c(C#N)c1C#N | – | > 10 µM | – | > 10 µM | – | > 10 µM | – | > 6.07 µM | – | > 10 µM | – | > 10 µM | – | > 10 | – | > 10 µM | – | > 10 µM | – | > 10
Nc1nc(C(=O)O)c(N=Nc2ccccc2)c(=O)[nH]1 | – | > 100 µM | – | > 100 µM | – | > 100 µM | – | > 100 µM | – | > 100 µM | – | > 100 µM | – | > 100 | – | > 100 µM | – | > 100 µM | – | > 100
Nc1nc(-c2ccc(Cl)cc2)nc2c1sc(=S)n2-c1ccccc1 | 6.09 | > 100 µM | 6.45 | 82.9 µM | 2.07 | 4.91 µM | > 100 | > 100 µM | 3.67 | 25.4 µM | 10.7 | 41.2 µM | 7.44 | > 100 | 1.92 | 5.19 µM | 3.75 | 20.2 µM | 1.84 | 3.62
NCc1ccc(-c2nc(-c3ccc(Cl)c(O)c3)c(-c3ccncc3)[nH]2)cc1 | > 25 | > 25 µM | 24.2 | > 25 µM | 16.7 | > 25 µM | 15.2 | > 25 µM | > 25 | > 25 µM | 1.65 | 9.86 µM | > 25 | > 25 | > 25 | > 25 µM | > 25 | > 25 µM | > 25 | > 25
COC(=O)c1cc([N+](=O)[O-])cc([N+](=O)[O-])c1Cl | 1.88 | 3.49 µM | 1.87 | 3.52 µM | 1.75 | 3.36 µM | 3.98 | 27.5 µM | 20.4 | 46.8 µM | 3.52 | 12.6 µM | 1.65 | 3.1 | 17 | 30.7 µM | 12.7 | 25.4 µM | 1.79 | 3.22
CC(=O)CC(=O)CCC(=O)Nc1cccc(C(F)(F)F)c1 | – | > 100 µM | – | > 100 µM | – | > 100 µM | – | > 100 µM | – | > 100 µM | – | > 100 µM | – | > 100 | – | > 100 µM | – | > 100 µM | – | > 100
COc1ccc(-c2[nH]c3ccccc3c2/C=C(\C#N)S(=O)(=O)c2ccccc2)cc1 | 0.309 | – | 0.503 | > 100 µM | 1.23 | > 100 µM | 0.287 | 1.5 µM | 0.759 | > 35.5 µM | 4.79 | > 21.8 µM | 0.253 | 0.67 | 1.14 | > 28.6 µM | 1.13 | > 45.9 µM | 0.844 | > 38.3
COc1ccc(/C=N\Nc2nc(SCC(C)C)nc(-c3ccc(OC)cc3)c2C#N)cc1 | 3.19 | 20.1 µM | 5.15 | > 100 µM | 18.2 | 75.2 µM | > 100 | > 100 µM | 0.524 | 16.2 µM | 17.2 | 39.7 µM | 3.72 | 23.4 | 2.49 | 7.14 µM | 11.7 | 67.7 µM | 1.86 | 9.33
O=C(CO)C1CC2C=CC1C2 (stereo unspecified) | – | > 100 µM | – | > 100 µM | – | > 100 µM | – | > 100 µM | – | > 100 µM | – | > 100 µM | – | > 100 | – | > 100 µM | – | > 100 µM | – | > 100
O=S(=O)(NCCCNc1cc(-c2cn(-c3ccccc3)nc2-c2cccc(O)c2)ccn1)c1ccc(F)cc1 | 2.26 | 6.5 µM | 3.76 | 14.2 µM | 3 | 10.7 µM | 2.2 | 5.85 µM | 5.11 | 21 µM | 2.79 | 9.14 µM | 1.96 | 3.87 | 2.49 | 9.81 µM | 3.65 | 22.9 µM | 2.35 | 6.23
C/C(=N\NC(=S)N1CCN(c2ccccn2)CC1)c1ncccn1 | < 0.0263 | 7.55 µM and 14.9 µM | 0.038 | 5.18 µM and 17.8 µM | < 0.0183 | 9.45 µM and 2.53 µM | – | 0.0274 µM and 0.103 µM | 0.117 | 5.91 µM and 13.2 µM | 2.48 | 5.88 µM and 18.5 µM | < 0.0245 | – | – | 6.19 µM and 16.2 µM | 0.791 | 1.47 µM and 14.6 µM | 0.0742 | 15.7
